Test results as given in patent publication US20190185479A1, “BICYCLIC NITROGENATED HETEROCYCLIC COMPOUND” (MITSUBISHI TANABE PHARMA CORPORATION, priority 2016, published 2019).

Key:
Type in all cases: biochemical
hPDE10A = hPDE10A (Homo sapiens, UniProt Q9Y233); experiment: PDE10 inhibition assay (IC50), Experimental Example 3; settings: for IC50: hPDE10A, read-out: PDE inhibition assay IC50, PDE10; for inhibition at 10 µM: at 10 μmol/L
Procedure: PDE7 inhibitory assay was carried out by reacting the mixture of a compound, hPDE7B, and cAMP, and measuring the residual cAMP by a detection method using LANCE (registered trademark) Ultra cAMP Detection Kit (ParkinElmer). The compound was dissolved in DMSO, and diluted so that the concentration would become 50 times of the final concentration. The hPDE7B and cAMP were diluted with an assay buffer (50 mmol/L Tris-HCl, 1 mmol/L MgCl2, 0.1% BSA, 0.5 mmol/L DTT, pH7.5) so that the hPDE7B would have an appropriate enzyme activity and the concentration of cAMP would become 6 nmol/L. To a 96 well plate were added the compound (2 μL) (DMSO final concentration: 2%), hPDE7B (48 μL), and cAMP (50 μL) (concentration at the reaction: 3 nmol/L), and the resulting mixture was reacted at room temperature for 60 minutes. The reaction solution (20 μL) was subjected to a TR-FRET method according to the protocol specified by the kit to measure the concentration of the residual cAMP. In the assay, to a tracer solution specified by the kit was added 0.5 mmol/L of 3-isobutyl-1-methylxanthine (IBMX, nonselective PDE inhibitor) in order to stop the PDE enzyme reaction after the completion of reaction until the measurement.
The prediction of PDE7 selectivity was evaluated by comparing each IC50 value of a compound against PDE4, 8, and 10 with the IC50 value of said compound against PDE7B.
hPDE4D, hPDE8B, and hPDE10A were prepared by the same method as [Method for preparing samples 2].
PDE4, 8, and 10 inhibitory assays were carried out by the same method as [Assay procedure 1].
The reaction without a compound wad defined as “0% inhibition”, the reaction without each PDE was defined as “100% inhibition”, and the calculation of IC50 value was carried out by the same method as <Method for data calculation 1>.

hPDE8B = target: T1, hPDE8B (Homo sapiens, UniProt O95263); experiment: PDE8 inhibition assay (IC50), Experimental Example 3; settings: for IC50: hPDE8B, read-out: PDE inhibition assay IC50, PDE8; for inhibition at 1 µM: at 1 μmol/L
T1 construct: purchased SB Drug Discovery
Procedure, shortened: (§1)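 Recombinant human enzymes incubated with compound and 3 nmol/L cAMP (final) in Tris-HCl pH 7.5 buffer with MgCl2, BSA, DTT, 2% DMSO final, 60 min at room temperature. Residual cAMP measured by TR-FRET (LANCE Ultra), reaction stopped with 0.5 mmol/L IBMX. IC50 from inhibition relative to no-compound (0%) and no-enzyme (100%) controls.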

hPDE4D = target: T2, hPDE4D (Homo sapiens, UniProt Q08499); experiment: PDE4 inhibition assay (IC50), Experimental Example 3; settings: for IC50: hPDE4D, read-out: PDE inhibition assay IC50, PDE4; for inhibition at 10 µM: at 10 μmol/L
T2 construct: purchased SB Drug Discovery
Procedure, shortened: as §1

Human PDE7B (hPDE7B) = target: T3, Human PDE7B (hPDE7B) (Homo sapiens, UniProt Q9NP56); experiment: Measurement of PDE7 inhibitory activity (Experimental Example 1; residual cAMP, LANCE Ultra cAMP TR-FRET); settings: cAMP 3 nmol/L, room temperature 60 minutes
T3 construct: made in house; host or cells: COS-7 cells
Procedure, shortened: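 hPDE7B from transfected COS-7 cells reacted with 3 nmol/L cAMP (final) and compound (2% DMSO) in 50 mmol/L Tris-HCl pH 7.5, 1 mmol/L MgCl2, 0.1% BSA, 0.5 mmol/L DTT, 60 min at room temperature. Reaction stopped with IBMX; residual cAMP measured by TR-FRET. Inhibition scaled between no-compound and no-enzyme controls.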

[1] = read-out: inhibition rate (%) at prescribed concentration, PDE10
[2] = read-out: inhibition rate (%) at prescribed concentration, PDE4
[3] = read-out: inhibition rate (%) at prescribed concentration, PDE8

T3 sequence (Q9NP56 whole entry): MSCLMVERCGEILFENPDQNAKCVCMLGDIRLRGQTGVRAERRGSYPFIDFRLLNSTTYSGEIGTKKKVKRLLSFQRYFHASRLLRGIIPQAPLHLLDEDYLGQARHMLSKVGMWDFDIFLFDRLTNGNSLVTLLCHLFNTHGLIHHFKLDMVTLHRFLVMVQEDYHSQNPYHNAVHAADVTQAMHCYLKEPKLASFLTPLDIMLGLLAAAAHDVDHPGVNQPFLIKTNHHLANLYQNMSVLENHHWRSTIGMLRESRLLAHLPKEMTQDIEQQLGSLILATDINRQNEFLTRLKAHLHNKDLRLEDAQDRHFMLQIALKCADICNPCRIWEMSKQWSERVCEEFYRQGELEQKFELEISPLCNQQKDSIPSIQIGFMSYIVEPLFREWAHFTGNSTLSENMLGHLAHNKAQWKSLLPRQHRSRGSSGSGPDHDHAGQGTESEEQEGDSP
T1 sequence (O95263 whole entry): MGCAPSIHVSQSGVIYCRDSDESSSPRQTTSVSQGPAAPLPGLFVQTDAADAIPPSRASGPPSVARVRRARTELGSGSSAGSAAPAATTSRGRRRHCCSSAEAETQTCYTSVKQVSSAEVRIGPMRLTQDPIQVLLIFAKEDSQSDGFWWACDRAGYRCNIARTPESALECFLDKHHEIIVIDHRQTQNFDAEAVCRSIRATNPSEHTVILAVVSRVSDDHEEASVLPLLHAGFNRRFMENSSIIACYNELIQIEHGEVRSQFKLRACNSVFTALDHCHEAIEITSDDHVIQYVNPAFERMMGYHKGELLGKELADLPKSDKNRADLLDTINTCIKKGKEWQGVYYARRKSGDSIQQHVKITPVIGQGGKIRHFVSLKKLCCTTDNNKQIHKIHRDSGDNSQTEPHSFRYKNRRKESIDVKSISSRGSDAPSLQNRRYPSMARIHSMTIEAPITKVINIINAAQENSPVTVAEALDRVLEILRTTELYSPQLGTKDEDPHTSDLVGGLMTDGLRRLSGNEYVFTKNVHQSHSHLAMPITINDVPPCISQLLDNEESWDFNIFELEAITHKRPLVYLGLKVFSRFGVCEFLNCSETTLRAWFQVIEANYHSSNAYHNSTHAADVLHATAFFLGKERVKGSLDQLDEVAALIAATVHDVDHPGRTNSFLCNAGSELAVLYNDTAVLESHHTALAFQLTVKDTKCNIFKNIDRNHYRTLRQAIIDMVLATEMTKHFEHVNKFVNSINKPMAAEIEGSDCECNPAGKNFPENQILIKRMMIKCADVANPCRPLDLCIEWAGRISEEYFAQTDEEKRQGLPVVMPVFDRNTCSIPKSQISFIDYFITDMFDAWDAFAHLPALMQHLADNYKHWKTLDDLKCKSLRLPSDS
Sequence of hPDE10A (Q9Y233 290-1055 limits assumed): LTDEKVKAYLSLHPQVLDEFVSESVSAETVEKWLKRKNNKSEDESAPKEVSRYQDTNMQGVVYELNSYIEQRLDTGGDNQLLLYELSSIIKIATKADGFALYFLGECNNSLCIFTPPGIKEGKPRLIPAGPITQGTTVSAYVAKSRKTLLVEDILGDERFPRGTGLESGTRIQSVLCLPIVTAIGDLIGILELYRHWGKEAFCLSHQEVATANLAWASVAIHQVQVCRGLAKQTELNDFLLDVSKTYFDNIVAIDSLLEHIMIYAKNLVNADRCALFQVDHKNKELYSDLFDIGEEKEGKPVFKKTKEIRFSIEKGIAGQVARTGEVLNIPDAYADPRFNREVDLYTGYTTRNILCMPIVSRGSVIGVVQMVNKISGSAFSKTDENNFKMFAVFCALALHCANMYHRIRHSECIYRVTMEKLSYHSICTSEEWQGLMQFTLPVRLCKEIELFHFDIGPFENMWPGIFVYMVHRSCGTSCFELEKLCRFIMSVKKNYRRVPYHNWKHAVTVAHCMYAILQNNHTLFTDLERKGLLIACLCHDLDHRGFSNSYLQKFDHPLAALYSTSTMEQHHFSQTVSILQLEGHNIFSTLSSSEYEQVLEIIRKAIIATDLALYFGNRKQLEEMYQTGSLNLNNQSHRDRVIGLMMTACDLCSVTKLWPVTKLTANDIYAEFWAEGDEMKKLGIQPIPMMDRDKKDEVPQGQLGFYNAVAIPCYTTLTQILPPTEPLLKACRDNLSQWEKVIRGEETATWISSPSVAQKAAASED
T2 sequence (Q08499 whole entry): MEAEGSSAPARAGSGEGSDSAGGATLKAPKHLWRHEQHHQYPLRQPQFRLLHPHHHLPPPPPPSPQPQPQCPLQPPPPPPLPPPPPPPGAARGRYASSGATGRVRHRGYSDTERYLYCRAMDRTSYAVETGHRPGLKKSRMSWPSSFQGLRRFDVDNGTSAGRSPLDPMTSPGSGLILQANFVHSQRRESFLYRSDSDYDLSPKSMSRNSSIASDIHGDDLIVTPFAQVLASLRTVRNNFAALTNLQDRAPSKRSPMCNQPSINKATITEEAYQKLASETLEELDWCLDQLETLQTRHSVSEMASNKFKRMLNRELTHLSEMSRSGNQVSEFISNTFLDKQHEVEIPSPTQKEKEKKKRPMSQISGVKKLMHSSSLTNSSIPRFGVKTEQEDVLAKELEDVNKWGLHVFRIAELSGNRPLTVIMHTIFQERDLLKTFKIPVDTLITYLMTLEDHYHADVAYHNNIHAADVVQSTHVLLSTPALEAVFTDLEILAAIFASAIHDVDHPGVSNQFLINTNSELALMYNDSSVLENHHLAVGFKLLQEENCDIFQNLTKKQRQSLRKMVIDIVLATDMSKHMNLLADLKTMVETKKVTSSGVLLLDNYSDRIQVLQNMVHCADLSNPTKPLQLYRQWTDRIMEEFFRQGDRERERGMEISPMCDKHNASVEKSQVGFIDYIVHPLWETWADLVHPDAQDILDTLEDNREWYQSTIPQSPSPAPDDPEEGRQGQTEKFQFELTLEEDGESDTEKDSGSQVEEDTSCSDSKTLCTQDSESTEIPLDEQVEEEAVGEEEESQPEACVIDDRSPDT

Compound	IC50 (hPDE10A) [µM]	IC50 (hPDE8B) [µM]	inhibition at 1 µM (hPDE4D; at 1 μmol/L, read-out: inhibition rate (%) at prescribed concentration, PDE4) [%]	IC50 (Human PDE7B (hPDE7B)) [µM]	inhibition at 10 µM (hPDE10A; [1]) [%]	IC50 (hPDE4D) [µM]	inhibition at 1 µM (hPDE10A; at 1 μmol/L, read-out: inhibition rate (%) at prescribed concentration, PDE10) [%]	inhibition at 1 µM (hPDE8B; [3]) [%]	inhibition at 0.1 µM (hPDE8B; at 0.1 μmol/L, read-out: inhibition rate (%) at prescribed concentration, PDE8) [%]	inhibition at 10 µM (hPDE8B; at 10 μmol/L, read-out: inhibition rate (%) at prescribed concentration, PDE8) [%]	inhibition at 10 µM (hPDE4D; [2]) [%]
Nc1nccn2c(C3CC4(CC4)C3)nnc12 [Example 20]		1.58		0.08	22						40
CC1(C)CCCN(c2nnc3c(N)nccn23)C1 [Example 26, 3-(3,3-dimethylpiperidin-1-yl) [1,2,4]triazolo[4,3-a]pyrazin-8-amine]	21.1	7.66		0.02		4.59					
Nc1nccn2c(N3CCCCCC3)nnc12 [Example 29]	11.9	5.1		0.08		5.4					
Nc1nccn2c(N3CCCCC34CC4)nnc12 [Example 38]	25	2.74		0.08		5.21					
CC1(C)CCCN(c2nnc3c(N)ncc(C4CC4)n23)C1 [Example 43, 5-cyclopropyl-3-(3,3-dimethylpiperidin-1-yl) [1,2,4]triazolo[4,3-a]pyrazin-8-amine]	2.33	1.52		0.03		2.19					
Nc1nccn2c(N3CCCC4(CC4)C3)nnc12 [Example 44]	24.1	5.51		0.08		7.85					
Nc1nccn2c(N3CCCC(C(F)(F)F)C3)nnc12 (stereo not drawn) [Example 46]	34.5	7.7		0.08		56.9					
Nc1nccn2c(N3C4CCCC3CC4)nnc12 [Example 67]	31.8	15		0.09		21					
Cc1cnc(N)c2nnc(N3CCCC(C)(C)C3)n12 [Example 80, 3-(3,3-dimethylpiperidin-1-yl)-5-methyl[1,2,4]triazolo[4,3-a]pyrazin-8-amine]	8	3		0.003		6					
C[C@H]1CC[C@@H](n2nnc3c(N)ncnc32)CC1 [Example 99, 3-(cis-4-methylcyclohexyl)-3H-[1,2,3]triazolo[4,5-d]pyrimidin-7-amine]		0.12		0.02	38	1.6					
CC1(C)CCC(n2nnc3c(N)ncnc32)CC1 [Example 101, 3-(4,4-dimethylcyclohexyl)-3H-[1,2,3]triazolo[4,5-d]pyrimidin-7-amine]	5.84			0.02		0.64			69		
Nc1ncnc2c1nnn2C1CCCCCC1 [Example 110, 3-cycloheptyl-3H-[1,2,3]triazolo[4,5-d]pyrimidin-7-amine]		0.59		0.03	33	3.5					
CN1CCC[C@H](n2nnc3c(N)ncnc32)C1 [Example 135, 3-[(3S)-1-methylpiperidin-3-yl]-3H-[1,2,3]triazolo[4,5-d]pyrimidin-7-amine]		9.41		0.31	22						17
Nc1nccn2c(C3CCCC3)nnc12 [Example 161]		1.77		0.11	27	5.5					

Further lines, with some results ahead:

IC50 (hPDE10A) [µM]	IC50 (hPDE8B) [µM]	inhibition at 1 µM (hPDE4D; at 1 μmol/L, read-out: inhibition rate (%) at prescribed concentration, PDE4) [%]	IC50 (Human PDE7B (hPDE7B)) [µM]	inhibition at 10 µM (hPDE10A; [1]) [%]	IC50 (hPDE4D) [µM]	inhibition at 1 µM (hPDE10A; at 1 μmol/L, read-out: inhibition rate (%) at prescribed concentration, PDE10) [%]	inhibition at 1 µM (hPDE8B; [3]) [%]	inhibition at 0.1 µM (hPDE8B; at 0.1 μmol/L, read-out: inhibition rate (%) at prescribed concentration, PDE8) [%]	inhibition at 10 µM (hPDE8B; at 10 μmol/L, read-out: inhibition rate (%) at prescribed concentration, PDE8) [%]	Compound	inhibition at 10 µM (hPDE4D; [2]) [%]
6.23	1.62	61	0.0007							CC1(C)CCCN(c2nnc3c(N)ncc(C#N)n23)C1 [Example 2, 8-amino-3-(3,3-dimethylpiperidin-1-yl) [1,2,4]triazolo[4,3-a]pyrazine-5-carbonitrile]	
	0.24		0.01	48	2.13					C[C@H]1CC[C@H](n2nnc3c(N)ncnc32)CC1 [Example 8, 3-(trans-4-methylcyclohexyl)-3H-[1,2,3]triazolo[4,5-d]pyrimidin-7-amine]	
5.5	5.8		0.04		8.3					C[C@@H]1CCCCN1c1nnc2c(N)nccn12 [Example 22, 3-(2-methylpiperidin-1-yl) [1,2,4]triazolo[4,3-a]pyrazin-8-amine]	
12.9	1.6		0.07		6.3					CC1CCCN(c2nnc3c(N)nccn23)C1 (stereo not drawn) [Example 24]	
28.4	3.7		0.09		4.3					CC1CCN(c2nnc3c(N)nccn23)CC1 [Example 28]	
22.6	2.27		0.08		5.78					CC(C)(C)OC(=O)N1CCCCC1c1nnc2c(N)nccn12 (stereo not drawn) [Example 32, tert-butyl 2-(8-amino-[1,2,4]triazolo[4,3-a]pyrazin-3-yl)piperidine-1-carboxylate]	
5.2	1.7		< 0.01		3					CCc1cnc(N)c2nnc(N3CCCC(C)(C)C3)n12 [Example 42, 3-(3,3-dimethylpiperidin-1-yl)-5-ethyl[1,2,4]triazolo[4,3-a]pyrazin-8-amine]	
			0.07		1.3	52	79			Nc1nccn2c(N3CCCC(Cc4ccccc4)C3)nnc12 (stereo not drawn) [Example 48]	
6.8	1.16		0.08		8.19					C[C@@H]1C[C@H](C)CN(c2nnc3c(N)nccn23)C1 [Example 52]	
	0.5		0.02	34	4.13					Nc1ncnn2c(C3CCCCC3)nnc12 [Example 68, 3-cyclohexyl[1,2,4]triazolo[3,4-f][1,2,4]triazin-8-amine]	
19			0.12		3.7		59			Nc1ncnc2c1nnn2[C@@H]1CCCOC1 [Example 90]	
	2.06		0.17	25	9.45					Nc1ncnc2c1nnn2C1CCC(F)(F)CC1 [Example 104]	
			0.05	48	5.72				49	Nc1nccn2c(C3(F)CCCCC3)nnc12 [Example 142, 3-(1-fluorocyclohexyl) [1,2,4]triazolo[4,3-a]pyrazin-8-amine]	
	1.66		0.04	46	2.2					C[C@H]1CC[C@H](c2nnc3c(N)nccn32)CC1 [Example 149, 3-(trans-4-methylcyclohexyl) [1,2,4]triazolo[4,3-a]pyrazin-8-amine]	
18.6	21.9		0.07		35.1					CC1CCC(F)(F)CC1c1nnc2c(N)nccn12 (stereo not drawn) [Example 153]	
10.6	3.51		0.06		4.77					Nc1nccn2c(C3CCc4[nH]ncc4C3)nnc12 (stereo not drawn) [Example 159]	
34.9			0.08		3.41		54			Nc1nccn2c([C@@H]3C[C@@H]4[C@H](C3)C4(F)F)nnc12 [Example 160]	
	4.4		0.03	41	3.79					Nc1nccn2c(C3[C@H]4CCCC[C@@H]34)nnc12 (stereo partly drawn) [Example 164, 3-[(1R,6S,7r)-bicyclo[4.1.0]hept-7-yl][1,2,4]triazolo[4,3-a]pyrazin-8-amine]	
	8.89		0.16	39	3.87					Nc1nccn2c(N3CCCCC3)nnc12 [Example 166]	
